From paper PMC9817970 (Cancers, 2022)

How the values were obtained:
Experiment in all cases: Kinase panel profiling
Format in all cases: biochemical
Details in all cases: 10 μM ATP
ABL1 = biological target: T1, ABL1 (Homo sapiens, UniProt P00519)
T1 construct: purchased Reaction Biology Corp
Experimental: (§1) Kinase panel profiling was conducted by Reaction Biology Corp. (San Diego, CA, USA). A single dose (1.0 μM) of 6r was tested against 371 recombinant human kinases in the presence of 10 μM ATP.

AKT3 = biological target: T2, AKT3 (Homo sapiens, UniProt Q9Y243)
T2 construct: purchased Reaction Biology Corp
T2 sequence (Q9Y243 whole entry): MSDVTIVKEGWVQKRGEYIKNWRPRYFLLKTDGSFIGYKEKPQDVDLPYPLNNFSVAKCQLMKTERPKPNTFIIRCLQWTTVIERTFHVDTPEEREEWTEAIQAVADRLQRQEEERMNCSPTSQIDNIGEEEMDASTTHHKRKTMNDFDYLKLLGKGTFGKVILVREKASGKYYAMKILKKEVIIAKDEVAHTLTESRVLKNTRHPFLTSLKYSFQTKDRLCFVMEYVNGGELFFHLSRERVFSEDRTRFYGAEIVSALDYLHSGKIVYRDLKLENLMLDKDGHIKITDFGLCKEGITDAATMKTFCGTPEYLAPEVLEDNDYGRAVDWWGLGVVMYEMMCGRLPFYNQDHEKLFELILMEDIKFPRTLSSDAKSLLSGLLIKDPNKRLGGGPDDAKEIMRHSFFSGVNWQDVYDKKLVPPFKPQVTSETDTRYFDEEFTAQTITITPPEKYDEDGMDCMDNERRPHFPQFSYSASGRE
Experimental: as §1

BLK = biological target: T3, BLK (Homo sapiens, UniProt P51451)
T3 construct: purchased Reaction Biology Corp
Experimental: as §1

BRK = biological target: T4, BRK (Homo sapiens, UniProt Q13882)
T4 construct: purchased Reaction Biology Corp
Experimental: as §1

CAMK1d = biological target: T5, CAMK1d (Homo sapiens, UniProt Q8IU85)
T5 construct: purchased Reaction Biology Corp
T5 sequence (Q8IU85 whole entry): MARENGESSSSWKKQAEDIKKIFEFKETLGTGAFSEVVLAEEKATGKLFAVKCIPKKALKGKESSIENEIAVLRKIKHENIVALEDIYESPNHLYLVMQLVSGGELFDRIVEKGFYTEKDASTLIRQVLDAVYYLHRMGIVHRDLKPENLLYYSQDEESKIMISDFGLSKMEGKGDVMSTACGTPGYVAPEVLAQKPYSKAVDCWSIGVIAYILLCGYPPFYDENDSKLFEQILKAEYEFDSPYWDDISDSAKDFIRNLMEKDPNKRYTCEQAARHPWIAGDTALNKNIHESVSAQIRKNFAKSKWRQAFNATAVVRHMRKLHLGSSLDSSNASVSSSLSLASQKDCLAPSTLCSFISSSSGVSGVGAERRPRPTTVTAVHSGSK
Experimental: as §1

CDC7/DBF4 = biological target: T6, CDC7/DBF4 (Homo sapiens, UniProt O00311)
T6 construct: purchased Reaction Biology Corp
Experimental: as §1

CDK16/cyclin Y (PCTAIRE) = biological target: T7, CDK16/cyclin Y (PCTAIRE) (Homo sapiens, UniProt Q00536)
T7 construct: purchased Reaction Biology Corp
Experimental: as §1

CDK3/cyclin E = biological target: T8, CDK3/cyclin E (Homo sapiens, UniProt Q00526)
T8 construct: purchased Reaction Biology Corp
Experimental: as §1

CDK5/p35 = biological target: T9, CDK5/p35 (Homo sapiens, UniProt Q00535)
T9 construct: purchased Reaction Biology Corp
T9 sequence (Q00535 whole entry): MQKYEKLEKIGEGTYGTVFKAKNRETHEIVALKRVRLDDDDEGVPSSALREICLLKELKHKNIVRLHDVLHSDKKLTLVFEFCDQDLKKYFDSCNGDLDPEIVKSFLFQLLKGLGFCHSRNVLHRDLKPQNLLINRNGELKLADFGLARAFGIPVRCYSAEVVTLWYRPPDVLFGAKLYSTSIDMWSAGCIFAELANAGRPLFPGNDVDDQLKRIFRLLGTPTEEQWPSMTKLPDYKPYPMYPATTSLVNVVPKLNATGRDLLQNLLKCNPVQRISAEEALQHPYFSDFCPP
T9 sequence (Q15078 whole entry partner): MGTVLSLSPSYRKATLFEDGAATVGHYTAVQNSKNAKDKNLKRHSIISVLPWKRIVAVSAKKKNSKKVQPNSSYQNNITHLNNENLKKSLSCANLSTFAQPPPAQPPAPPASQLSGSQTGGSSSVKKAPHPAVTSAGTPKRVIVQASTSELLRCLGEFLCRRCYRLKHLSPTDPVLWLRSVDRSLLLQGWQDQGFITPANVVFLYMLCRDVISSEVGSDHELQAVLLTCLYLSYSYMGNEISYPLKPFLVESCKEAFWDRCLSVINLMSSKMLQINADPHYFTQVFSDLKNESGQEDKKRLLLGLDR
Experimental: as §1

CDK8/cyclin C = biological target: T10, CDK8/cyclin C (Homo sapiens, UniProt P49336)
T10 construct: purchased Reaction Biology Corp
Experimental: as §1

CDK9/CYCLIN K = biological target: T11, CDK9/CYCLIN K (Homo sapiens, UniProt P50750)
T11 construct: purchased Reaction Biology Corp
T11 sequence (P50750 whole entry): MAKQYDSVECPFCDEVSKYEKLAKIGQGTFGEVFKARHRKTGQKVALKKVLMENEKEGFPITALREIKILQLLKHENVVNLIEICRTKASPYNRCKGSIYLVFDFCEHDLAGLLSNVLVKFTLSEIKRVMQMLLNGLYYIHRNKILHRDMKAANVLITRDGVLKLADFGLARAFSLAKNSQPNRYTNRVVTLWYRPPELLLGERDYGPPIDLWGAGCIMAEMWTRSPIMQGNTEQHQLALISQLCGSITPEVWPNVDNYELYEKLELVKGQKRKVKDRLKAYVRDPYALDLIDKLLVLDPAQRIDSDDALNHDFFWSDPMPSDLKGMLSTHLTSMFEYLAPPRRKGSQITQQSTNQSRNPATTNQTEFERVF
T11 sequence (O75909 whole entry partner): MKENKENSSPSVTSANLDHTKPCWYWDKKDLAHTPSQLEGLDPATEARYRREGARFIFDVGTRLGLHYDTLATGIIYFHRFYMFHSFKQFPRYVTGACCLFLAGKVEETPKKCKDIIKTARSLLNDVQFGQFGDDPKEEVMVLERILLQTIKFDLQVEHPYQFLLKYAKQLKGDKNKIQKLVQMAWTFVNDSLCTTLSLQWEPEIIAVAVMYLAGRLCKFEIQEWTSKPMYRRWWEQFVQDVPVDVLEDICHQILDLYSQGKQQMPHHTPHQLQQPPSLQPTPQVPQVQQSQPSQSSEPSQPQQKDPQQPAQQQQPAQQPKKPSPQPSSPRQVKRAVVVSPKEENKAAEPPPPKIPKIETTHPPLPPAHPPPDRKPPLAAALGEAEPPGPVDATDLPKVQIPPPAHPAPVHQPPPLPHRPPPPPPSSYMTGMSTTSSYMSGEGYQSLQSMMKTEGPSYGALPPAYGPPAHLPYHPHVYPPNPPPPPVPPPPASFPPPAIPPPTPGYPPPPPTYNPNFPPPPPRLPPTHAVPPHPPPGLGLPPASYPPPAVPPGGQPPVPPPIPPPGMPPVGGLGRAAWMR
Experimental: as §1

CK1epsilon = biological target: T12, CK1epsilon (Homo sapiens, UniProt P49674)
T12 construct: purchased Reaction Biology Corp
Experimental: as §1

DCAMKL1 = biological target: T13, DCAMKL1 (Homo sapiens, UniProt O15075)
T13 construct: purchased Reaction Biology Corp
Experimental: as §1

EGFR = biological target: T14, EGFR (Homo sapiens, UniProt P00533)
T14 construct: purchased Reaction Biology Corp
Experimental: as §1

EPHA1 = biological target: T15, EPHA1 (Homo sapiens, UniProt P21709)
T15 construct: purchased Reaction Biology Corp
Experimental: as §1

ERK1 = biological target: T16, ERK1 (Homo sapiens, UniProt P27361)
T16 construct: purchased Reaction Biology Corp
Experimental: as §1

ERK5/MAPK7 = biological target: T17, ERK5/MAPK7 (Homo sapiens, UniProt Q13164)
T17 construct: purchased Reaction Biology Corp
Experimental: as §1

ERK7/MAPK15 = biological target: T18, ERK7/MAPK15 (Homo sapiens, UniProt Q8TD08)
T18 construct: purchased Reaction Biology Corp
Experimental: as §1

FMS = biological target: T19, FMS (Homo sapiens, UniProt P07333)
T19 construct: purchased Reaction Biology Corp
Experimental: as §1

Haspin = biological target: T20, Haspin (Homo sapiens, UniProt Q8TF76)
T20 construct: purchased Reaction Biology Corp
Experimental: as §1

IKKa/CHUK = biological target: T21, IKKa/CHUK (Homo sapiens, UniProt O15111)
T21 construct: purchased Reaction Biology Corp
Experimental: as §1

IKKe/IKBKE = biological target: T22, IKKe/IKBKE (Homo sapiens, UniProt Q14164)
T22 construct: purchased Reaction Biology Corp
Experimental: as §1

MAPKAPK3 = biological target: T23, MAPKAPK3 (Homo sapiens, UniProt Q16644)
T23 construct: purchased Reaction Biology Corp
Experimental: as §1

MARK3 = biological target: T24, MARK3 (Homo sapiens, UniProt P27448)
T24 construct: purchased Reaction Biology Corp
Experimental: as §1

MARK4 = biological target: T25, MARK4 (Homo sapiens, UniProt Q96L34)
T25 construct: purchased Reaction Biology Corp
T25 sequence (Q96L34 whole entry): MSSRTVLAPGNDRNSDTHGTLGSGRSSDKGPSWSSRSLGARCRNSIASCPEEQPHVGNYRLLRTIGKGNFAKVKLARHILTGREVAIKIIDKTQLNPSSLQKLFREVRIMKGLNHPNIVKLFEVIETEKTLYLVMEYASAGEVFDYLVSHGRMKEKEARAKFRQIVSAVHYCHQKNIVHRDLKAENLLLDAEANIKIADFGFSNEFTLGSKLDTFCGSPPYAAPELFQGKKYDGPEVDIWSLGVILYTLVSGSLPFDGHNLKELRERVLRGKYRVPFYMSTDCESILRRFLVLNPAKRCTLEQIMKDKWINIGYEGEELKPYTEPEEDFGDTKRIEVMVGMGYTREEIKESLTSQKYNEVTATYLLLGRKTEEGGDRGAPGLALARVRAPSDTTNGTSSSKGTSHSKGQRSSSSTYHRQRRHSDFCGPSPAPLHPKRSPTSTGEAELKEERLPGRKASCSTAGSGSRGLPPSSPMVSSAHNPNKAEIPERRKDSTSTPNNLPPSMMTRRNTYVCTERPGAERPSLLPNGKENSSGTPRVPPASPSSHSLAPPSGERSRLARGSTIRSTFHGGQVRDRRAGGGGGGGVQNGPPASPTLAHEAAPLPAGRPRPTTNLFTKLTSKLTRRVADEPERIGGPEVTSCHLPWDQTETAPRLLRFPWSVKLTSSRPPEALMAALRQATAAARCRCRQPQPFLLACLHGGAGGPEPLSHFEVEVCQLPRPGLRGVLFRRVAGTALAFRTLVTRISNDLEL
Experimental: as §1

MEKK3 = biological target: T26, MEKK3 (Homo sapiens, UniProt Q99759)
T26 construct: purchased Reaction Biology Corp
Experimental: as §1

MSK2/RPS6KA4 = biological target: T27, MSK2/RPS6KA4 (Homo sapiens, UniProt O75676)
T27 construct: purchased Reaction Biology Corp
T27 sequence (O75676 whole entry): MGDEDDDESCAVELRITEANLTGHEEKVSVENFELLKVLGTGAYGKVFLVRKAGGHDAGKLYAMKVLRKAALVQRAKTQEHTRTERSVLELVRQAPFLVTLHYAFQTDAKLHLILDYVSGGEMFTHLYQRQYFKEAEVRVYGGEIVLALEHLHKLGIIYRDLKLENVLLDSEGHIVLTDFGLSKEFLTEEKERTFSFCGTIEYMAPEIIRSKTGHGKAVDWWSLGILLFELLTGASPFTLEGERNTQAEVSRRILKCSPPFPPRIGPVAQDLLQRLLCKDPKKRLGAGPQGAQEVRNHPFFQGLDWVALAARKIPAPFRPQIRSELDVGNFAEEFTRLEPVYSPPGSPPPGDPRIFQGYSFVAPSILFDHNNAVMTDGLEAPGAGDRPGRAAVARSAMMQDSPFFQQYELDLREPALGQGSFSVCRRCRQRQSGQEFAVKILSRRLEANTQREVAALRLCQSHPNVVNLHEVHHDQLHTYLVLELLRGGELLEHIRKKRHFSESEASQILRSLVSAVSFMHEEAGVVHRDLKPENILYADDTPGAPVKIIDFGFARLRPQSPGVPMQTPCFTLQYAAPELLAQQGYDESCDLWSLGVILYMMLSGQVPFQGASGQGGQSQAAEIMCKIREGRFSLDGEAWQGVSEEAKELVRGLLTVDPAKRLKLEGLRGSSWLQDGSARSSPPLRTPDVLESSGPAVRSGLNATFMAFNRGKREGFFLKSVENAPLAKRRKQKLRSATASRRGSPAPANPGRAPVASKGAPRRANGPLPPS
Experimental: as §1

MSSK1/STK23 = biological target: T28, MSSK1/STK23 (Homo sapiens, UniProt Q9UPE1)
T28 construct: purchased Reaction Biology Corp
Experimental: as §1

MYO3b = biological target: T29, MYO3b (Homo sapiens, UniProt Q8WXR4)
T29 construct: purchased Reaction Biology Corp
Experimental: as §1

NEK2 = biological target: T30, NEK2 (Homo sapiens, UniProt P51955)
T30 construct: purchased Reaction Biology Corp
Experimental: as §1

NEK9 = biological target: T31, NEK9 (Homo sapiens, UniProt Q8TD19)
T31 construct: purchased Reaction Biology Corp
Experimental: as §1

P38d/MAPK13 = biological target: T32, P38d/MAPK13 (Homo sapiens, UniProt O15264)
T32 construct: purchased Reaction Biology Corp
T32 sequence (O15264 whole entry): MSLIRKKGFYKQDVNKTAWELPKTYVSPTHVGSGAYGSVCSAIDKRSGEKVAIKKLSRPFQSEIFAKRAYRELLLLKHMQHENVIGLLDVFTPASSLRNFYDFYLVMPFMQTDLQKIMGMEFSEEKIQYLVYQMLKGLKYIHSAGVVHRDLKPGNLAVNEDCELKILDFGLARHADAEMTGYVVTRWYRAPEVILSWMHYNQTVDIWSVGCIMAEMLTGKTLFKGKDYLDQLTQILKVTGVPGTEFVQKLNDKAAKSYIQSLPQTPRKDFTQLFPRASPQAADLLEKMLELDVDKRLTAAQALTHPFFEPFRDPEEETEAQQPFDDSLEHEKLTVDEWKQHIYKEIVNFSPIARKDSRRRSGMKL
Experimental: as §1

PAK6 = biological target: T33, PAK6 (Homo sapiens, UniProt Q9NQU5)
T33 construct: purchased Reaction Biology Corp
Experimental: as §1

PKCb2 = biological target: T34, PKCb2 (Homo sapiens, UniProt P05771)
T34 construct: purchased Reaction Biology Corp
Experimental: as §1

PLK2 = biological target: T35, PLK2 (Homo sapiens, UniProt Q9NYY3)
T35 construct: purchased Reaction Biology Corp
T35 sequence (Q9NYY3 whole entry): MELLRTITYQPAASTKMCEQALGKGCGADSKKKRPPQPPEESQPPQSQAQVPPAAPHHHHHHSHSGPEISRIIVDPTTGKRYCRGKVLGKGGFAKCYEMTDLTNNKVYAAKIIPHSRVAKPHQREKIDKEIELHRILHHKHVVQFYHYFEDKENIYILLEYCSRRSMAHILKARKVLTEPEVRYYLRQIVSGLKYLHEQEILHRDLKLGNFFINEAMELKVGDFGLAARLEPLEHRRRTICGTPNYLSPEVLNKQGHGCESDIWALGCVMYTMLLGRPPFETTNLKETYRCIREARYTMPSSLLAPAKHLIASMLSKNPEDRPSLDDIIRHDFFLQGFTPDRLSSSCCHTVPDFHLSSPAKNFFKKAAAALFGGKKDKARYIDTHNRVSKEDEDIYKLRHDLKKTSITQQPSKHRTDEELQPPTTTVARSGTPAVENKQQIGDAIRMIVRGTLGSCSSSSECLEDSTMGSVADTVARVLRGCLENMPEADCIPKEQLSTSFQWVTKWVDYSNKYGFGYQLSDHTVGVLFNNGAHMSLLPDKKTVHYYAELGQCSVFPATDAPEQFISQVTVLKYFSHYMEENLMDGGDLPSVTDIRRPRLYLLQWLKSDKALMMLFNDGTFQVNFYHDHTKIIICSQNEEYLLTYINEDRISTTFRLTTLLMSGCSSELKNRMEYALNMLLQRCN
Experimental: as §1

RIPK3 = biological target: T36, RIPK3 (Homo sapiens, UniProt Q9Y572)
T36 construct: purchased Reaction Biology Corp
Experimental: as §1

RIPK4 = biological target: T37, RIPK4 (Homo sapiens, UniProt P57078)
T37 construct: purchased Reaction Biology Corp
Experimental: as §1

RIPK5 = biological target: T38, RIPK5 (Homo sapiens, UniProt Q6XUX3)
T38 construct: purchased Reaction Biology Corp
Experimental: as §1

SGK3/SGKL = biological target: T39, SGK3/SGKL (Homo sapiens, UniProt Q96BR1)
T39 construct: purchased Reaction Biology Corp
Experimental: as §1

STK32C/YANK3 = biological target: T40, STK32C/YANK3 (Homo sapiens, UniProt Q86UX6)
T40 construct: purchased Reaction Biology Corp
Experimental: as §1

TNIK = biological target: T41, TNIK (Homo sapiens, UniProt Q9UKE5)
T41 construct: purchased Reaction Biology Corp
Experimental: as §1

ULK2 = biological target: T42, ULK2 (Homo sapiens, UniProt Q8IYT8)
T42 construct: purchased Reaction Biology Corp
Experimental: as §1

SMILES: Cc1ccc(NC(=O)c2ccc(CN3CCN(C)CC3)c(C(F)(F)F)c2)cc1-c1cnc2sc(N)nc2c1 [6r]
- inhibition at 1 µM (ABL1): 60.8%
- inhibition at 1 µM (AKT3): 13.6%
- inhibition at 1 µM (BLK): 84.8%
- inhibition at 1 µM (BRK): 37.5%
- inhibition at 1 µM (CAMK1d): 14.3%
- inhibition at 1 µM (CDC7/DBF4): 0.8%
- inhibition at 1 µM (CDK16/cyclin Y (PCTAIRE)): 0.8%
- inhibition at 1 µM (CDK3/cyclin E): 14.3%
- inhibition at 1 µM (CDK5/p35): 0.7%
- inhibition at 1 µM (CDK8/cyclin C): 0%
- inhibition at 1 µM (CDK9/CYCLIN K): 0%
- inhibition at 1 µM (CK1epsilon): 24.2%
- inhibition at 1 µM (DCAMKL1): 1.5%
- inhibition at 1 µM (EGFR): 21.4%
- inhibition at 1 µM (EPHA1): 8.2%
- inhibition at 1 µM (ERK1): 11.7%
- inhibition at 1 µM (ERK5/MAPK7): 6.5%
- inhibition at 1 µM (ERK7/MAPK15): 4.2%
- inhibition at 1 µM (FMS): 99%
- inhibition at 1 µM (Haspin): 12.1%
- inhibition at 1 µM (IKKa/CHUK): 4.8%
- inhibition at 1 µM (IKKe/IKBKE): 2%
- inhibition at 1 µM (MAPKAPK3): 10.7%
- inhibition at 1 µM (MARK3): 0%
- inhibition at 1 µM (MARK4): 2%
- inhibition at 1 µM (MEKK3): 4.9%
- inhibition at 1 µM (MSK2/RPS6KA4): 17.1%
- inhibition at 1 µM (MSSK1/STK23): 30.6%
- inhibition at 1 µM (MYO3b): 0%
- inhibition at 1 µM (NEK2): 0%
- inhibition at 1 µM (NEK9): 0%
- inhibition at 1 µM (P38d/MAPK13): 0%
- inhibition at 1 µM (PAK6): 7.6%
- inhibition at 1 µM (PKCb2): 12.7%
- inhibition at 1 µM (PLK2): 3.9%
- inhibition at 1 µM (RIPK3): 82.5%
- inhibition at 1 µM (RIPK4): 4.8%
- inhibition at 1 µM (RIPK5): 4.4%
- inhibition at 1 µM (SGK3/SGKL): 0.8%
- inhibition at 1 µM (STK32C/YANK3): 0.6%
- inhibition at 1 µM (TNIK): 22.4%
- inhibition at 1 µM (ULK2): 0%
